In US20260206761A1, “HETEROARYL-TRIAZOLE COMPOUNDS AS PESTICIDES” (Bayer Aktiengesellschaft, priority 2019, published 2026):

Experiments:
Format in all cases: in vivo
[1] = system: larvae of the southern green stink bug (Nezara viridula); test: Nezara viridula spray test; conditions: 96 h, after 4 days; for mortality at 100 g/ha: application rate 100 g/ha; for mortality at 500 g/ha: application rate 500 g/ha
Outline: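 Larva-infested barley (Hordeum vulgare) plants received a spray of test solution prepared from an acetone/DMF concentrate diluted in emulsifier-containing water (1000 ppm). Percent kill read 4 days later; 0% means no stink bugs dead.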

[2] = system: green peach aphid (Myzus persicae); test: Myzus persicae spray test; conditions: 120 h, after 5 days; for mortality at 100 g/ha: application rate 100 g/ha
Outline: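 Chinese cabbage leaf disks carrying all instars of M. persicae sprayed with compound in acetone/DMF, diluted in water with 1000 ppm alkylarylpolyglycol ether emulsifier. Percent mortality scored after 5 days (100% = all aphids killed).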

[3] = system: Anopheles funestus strain FUMOZ-R; test: Anopheles funestus test (ANPHFU surface treatment & contact assay); conditions: 24 hours after contact, read-out: efficacy (mortality); for mortality at 4 mg/m2: surface concentration 4 mg/m^2, exposure 30 minutes; for mortality at 20 mg/m2: surface concentration 20 mg/m^2, exposure 30 minutes
Experimental: Anopheles funestus Test (ANPHFU Surface Treatment & Contact Assay)
(§1) Solvent: Aceton+2000 ppm rapeseed oil methyl ester (RME)
(§2) In order to produce a sufficient, active ingredient containing solution it is necessary to solve the test compound in the solvent-mix (acetone at 2 mg/ml/RME 2000 ppm). This solution is pipetted onto a glazed tile and after evaporation of the acetone, adult mosquitoes of the species Anopheles funestus strain FUMOZ-R (Hunt et al., Med. Vet. Entomol. 2005 September; 19(3): 271-275) are placed onto the dried surface. The exposure time is 30 minutes. Mortality in percent (%) is determined 24 hours after contact of the insects to the treated surface. 100% mortality means that all tested insects are dead, whereas 0% means that no insect died.

[4] = system: larvae of the banded cucumber beetle (Diabrotica balteata); test: Diabrotica balteata spray test; conditions: 168 h, after 7 days, read-out: activity (efficacy: seedlings grown); for pest or weed control at 100 g/ha: application rate 100 g/ha (=32 pg/well); for pest or weed control at 500 g/ha: application rate 500 g/ha (=160 pg/well)
Outline: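 Read-out is % efficacy at day 7, 0% meaning no seedling growth and 100% growth equal to uninfested untreated controls. Test solutions (acetone/DMF concentrate diluted with water carrying 1000 ppm emulsifier) were sprayed onto 1-day-germinated wheat seeds, 5 per well, before infestation with 10-20 larvae.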

[5] = system: green peach aphid (Myzus persicae); test: Myzus persicae oral test; conditions: 120 h, application rate 4 ppm, after 5 days
Outline: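 Readout: % mortality at day 5, where 100% = all aphids dead and 0% = none dead. Feeding via parafilm membrane over compound in IPL41 medium (33%+15% sugar); mixed-age population. Stock in acetone (1:100 w/w), water-diluted.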

[6] = system: Aedes aegypti strain MONHEIM; test: Aedes aegypti test (AEDSAE surface treatment & contact assay); conditions: 24 hours after contact, read-out: efficacy (mortality); for mortality at 4 mg/m2: surface concentration 4 mg/m^2, exposure 30 minutes; for mortality at 20 mg/m2: surface concentration 20 mg/m^2, exposure 30 minutes
Outline: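 Percent mortality was read 24 h after adult MONHEIM mosquitoes were held for 30 min on a tile treated with compound. Compound applied from acetone solution (2 mg/ml) containing 2000 ppm rapeseed oil methyl ester, after evaporation.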

[7] = system: brown planthopper (Nilaparvata lugens); test: Nilaparvata lugens spray test; conditions: 96 h, after 4 days; for mortality at 500 g/ha: application rate 500 g/ha
Experimental: Nilaparvata lugens—Spray Test
Solvent: 78.0 parts by weight of acetone • • 1.5 parts by weight of dimethylformamide
Emulsifier: alkylarylpolyglycol ether
To produce a suitable preparation of active compound, 1 part by weight of active compound is mixed with the stated amount of solvents and is diluted with water, containing an emulsifier concentration of 1000 ppm, to the desired concentration. Further test concentrations are prepared by dilution with emulsifier containing water.
Rice plants (Oryza sativa) are sprayed with a preparation of the active ingredient of the desired concentration and the plants are infested with the brown planthopper (Nilaparvata lugens).
After 4 days mortality in % is determined. 100% means all planthoppers have been killed and 0% means none of the planthoppers have been killed.

[8] = system: fall armyworm larvae (Spodoptera frugiperda); test: Spodoptera frugiperda spray test; conditions: 168 h, read-out: activity (mortality)
Outline: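 Larvae of fall armyworm placed on dried maize leaf sections previously sprayed with emulsified compound (acetone/DMF solvent, water with 1000 ppm emulsifier). Percent of caterpillars killed recorded on day 7, 0–100% scale.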

[9] = system: adult cat fleas (Ctenocephalides felis); test: Ctenocephalides felis in-vitro contact test, adult cat flea; conditions: application rate 5 μg/cm^2 (=500 g/ha), after 48 hours, read-out: activity (efficacy: fleas dead or moribund)
Outline: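 Efficacy, as % of fleas dead or moribund, was read 48 h after 5-10 adult cat fleas were confined in glass tubes whose walls carried dried compound film (900 ppm, […]). Fleas failing to escape upward from a 45-50° C plate within 5 min counted as dead or moribund.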

[10] = system: adult unfed cat fleas (Ctenocephalides felis); test: Ctenocephalides felis oral test; conditions: 48 h, read-out: activity (mortality)
Outline: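 About 20 adult unfed fleas fed through parafilm on cattle blood containing compound (DMSO stock diluted in blood), blood held at 37 °C and fleas at room temperature. Mortality (%) scored after 2 days.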

[11] = system: adult engorged female ticks (Rhipicephalus microplus); test: Rhipicephalus (Boophilus) microplus injection test; conditions: 168 h, egg deposition after 7 days, read-out: activity (efficacy: infertile eggs); for pest or weed control at 4 pg: application rate 4 pg/animal; for pest or weed control at 0.02 mg: application rate 20 μg/animal
Outline: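 Abdominal injection, 1 μL compound/DMSO, n=5 engorged adult females; climate-chamber incubation. Readout d7: fertile egg laying; doubtful eggs held to hatch (~42 d). % efficacy = infertile eggs (100% all infertile).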

[12] = system: Rhipicephalus microplus larvae (strain Parkhurst, resistant against synthetic pyrethroids); test: Rhipicephalus (Boophilus) microplus in-vitro contact test, larval cattle tick; conditions: after 48 hours, read-out: activity (efficacy: larvae dead or moribund); for pest or weed control at 100 g/ha: application rate 1 pg/cm^2 (=100 g/ha); for pest or weed control at 500 g/ha: application rate 5 pg/cm^2 (=500 g/ha)
Outline: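 Larvae (20-50 per tube) exposed to dry compound film on glass tube walls, 5 μg/cm^2 at 900 ppm, applied from acetone. After 48 h at 27° C./85% RH, tubes tapped and negative geotaxis scored; efficacy as percent dead or moribund larvae.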

[13] = system: adult brown dog ticks (Rhipicephalus sanguineus); test: Rhipicephalus sanguineus in-vitro contact test, adult brown dog ticks; conditions: after 48 hours, read-out: activity (efficacy: ticks dead or moribund); for pest or weed control at 100 g/ha: application rate 1 pg/cm^2 (=100 g/ha); for pest or weed control at 5 µg/cm2, 500 g/ha: application rate 5 μg/cm^2 (=500 g/ha)
Outline: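 Read-out: % efficacy as dead or moribund ticks, judged 48 h after exposure by failure to climb away from a 45-50° C heating plate within 5 min. Tubes were coated with acetone solution (900 ppm = 5 μg/cm^2 surface dose) and held 5-10 adults each at room temperature.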

[14] = system: Culex quinquefasciatus strain P00; test: Culex quinquefasciatus test (CULXFA surface treatment & contact assay); conditions: 24 hours after contact, read-out: efficacy (mortality); for mortality at 4 mg/m2: surface concentration 4 mg/m^2, exposure 30 minutes
Experimental: Culex quinquefasciatus Test (CULXFA Surface Treatment & Contact Assay)
as §1
as §2, with “2 000” for “2000”, “Culex quinquefasciatus” for “Anopheles funestus”, “P00” for “FUMOZ-R (Hunt et al., Med. Vet. Entomol. 2005 September; 19(3): 271-275)”

[15] = system: Musca domestica strain WHO-N; test: Musca domestica test (MUSCDO surface treatment & contact assay); conditions: surface concentration 20 mg/m^2, exposure 30 minutes, 24 hours after contact, read-out: efficacy (mortality)
Experimental: Musca domestica Test (MUSCDO Surface Treatment & Contact Assay)
as §1
as §2, with “flies” for “mosquitoes”, “Musca domestica” for “Anopheles funestus”, “WHO—N” for “FUMOZ-R (Hunt et al., Med. Vet. Entomol. 2005 September; 19(3): 271-275)”

SMILES	mortality at 100 g/ha [2]	pest or weed control at 100 g/ha [4]	mortality at 4 mg/m2 [6]	mortality at 20 mg/m2 [6]	mortality at 500 g/ha [1]	mortality at 500 g/ha [7]	mortality at 100 g/ha [8]	mortality at 100 ppm [10]	pest or weed control at 4 pg [11]	pest or weed control at 0.02 mg [11]	pest or weed control at 100 g/ha [12]	pest or weed control at 500 g/ha [12]	also measured
CC(NC(=O)c1cc(Cl)cc(S(C)(=O)=O)c1)c1nc(Cl)nn1-c1ncccn1 (racemic) [I-29, 3-chloro-N-[1-(5-chloro-2-pyrimidin-2-yl-1,2,4-triazol-3-yl)ethyl]-5-methylsulfonyl-benzamide]	90%	100%	80 to 100%	80 to 100%									mortality at 100 g/ha [1]: 90%; mortality at 4 mg/m2 [3]: 80 to 100%; mortality at 20 mg/m2 [3]: 80 to 100%; mortality at 4 ppm [5]: 100%
CC(NC(=O)c1cc(C(F)(F)F)cc(S(C)(=O)=O)c1)c1nc(Br)nn1-c1ncccn1 (stereo not drawn) [I-38]	90%	100%											mortality at 100 g/ha [1]: 100%; mortality at 4 ppm [5]: 100%; mortality at 100 g/ha ([7]; application rate 100 g/ha): 100%
COc1nc([C@H](C)NC(=O)c2cc(OC(F)(F)F)cc(S(C)(=O)=O)c2)n(-c2ncc(Cl)cn2)n1 [I-77]	100%	100%			100%	100%	100%						
COc1nc([C@H](C)NC(=O)c2cc(C(F)F)cc(S(C)(=O)=O)c2)n(-c2ncc(Cl)cn2)n1 [I-88]		100%			100%	100%							
C[C@H](NC(=O)c1cc(OC(F)(F)F)cc(S(=O)(=O)C2CC2)c1)c1nc(C2CC2)nn1-c1ncc(Cl)cn1 [I-93]	100%	100%			100%	90%	100%						
C[C@H](NC(=O)c1cc(C(F)(F)F)cc(S(C)(=O)=O)c1)c1nc(Br)nn1-c1ncccn1 [I-95, N-[(1S)-1-(5-bromo-2-pyrimidin-2-yl-1,2,4-triazol-3-yl)ethyl]-3-methylsulfonyl-5-(trifluoromethyl)benzamide]	90%	100%				100%	100%						
C[C@H](NC(=O)c1cc(C(F)(F)F)cc(S(C)(=O)=O)c1)c1nc(Cl)nn1-c1ncccn1 [I-96, N-[(1S)-1-(5-chloro-2-pyrimidin-2-yl-1,2,4-triazol-3-yl)ethyl]-3-methylsulfonyl-5-(trifluoromethyl)benzamide]		100%			100%	100%	100%						
C[C@H](NC(=O)c1cncc(C2CC2)c1)c1ncnn1-c1ccc(C#N)cn1 [II-1]			80 to 100%										mortality at 4 mg/m2 [3]: 80 to 100%; mortality at 500 g/ha [8]: 100%
Cc1nc([C@H](C)NC(=O)c2csc(Cl)c2)n(-c2ccc(C#N)cn2)n1 [II-8]		100%	80 to 100%	80 to 100%			83%	100%	80%	100%	100%	100%	pest or weed control at 5 µg/cm2 [9]: 100%; mortality at 20 mg/m2 [3]: 80 to 100%; pest or weed control at 500 g/ha [4]: 100%; mortality at 500 g/ha [8]: 100%
C[C@H](NC(=O)c1csc(Cl)c1)c1ncnn1-c1ncccn1 [II-30]			80 to 100%	80 to 100%				100%	100%	100%	100%	100%	pest or weed control at 100 g/ha [13]: 100%; pest or weed control at 5 µg/cm2, 500 g/ha [13]: 100%; mortality at 500 g/ha ([2]; application rate 500 g/ha): 90%; pest or weed control at 5 µg/cm2 [9]: 90%; mortality at 4 mg/m2 [3]: 80 to 100%; pest or weed control at 500 g/ha [4]: 100%
C[C@H](NC(=O)c1cc(Cl)cc(S(=O)(=O)C(F)F)c1)c1ncnn1-c1ccc(Cl)cn1 [II-37]		100%	80 to 100%	80 to 100%			100%	100%	100%	100%	100%	100%	mortality at 4 mg/m2 [14]: 80 to 100%; mortality at 20 mg/m2 ([14]; surface concentration 20 mg/m^2, exposure 30 minutes): 80 to 100%; pest or weed control at 500 g/ha [4]: 100%; mortality at 20 mg/m2 [15]: 80 to 100%; mortality at 500 g/ha [8]: 100%
C[C@H](NC(=O)c1cc(C(F)(F)F)cc(S(=O)(=O)C2CC2)c1)c1ncnn1-c1ccc(Cl)cn1 [II-46]		100%	80 to 100%	80 to 100%			100%	90%	100%	100%	100%	100%	mortality at 4 mg/m2 [14]: 80 to 100%; pest or weed control at 100 g/ha [13]: 100%; pest or weed control at 5 µg/cm2, 500 g/ha [13]: 80%; mortality at 20 mg/m2 [15]: 80 to 100%
